These results are taken from ChEMBL document CHEMBL1146208, “Discovery and optimization of novel, non-steroidal glucocorticoid receptor modulators” (Bioorg Med Chem Lett, 2007).

Broadly, the Ki is the equilibrium dissociation constant of an inhibitor or competing ligand from its target. A word on the inhibition: it is the percentage by which the read-out fell short of the control. A lower inhibition goes with a response near the control. For orientation: AUC means the area under the concentration-time curve, a measure of exposure. A high value points to high exposure. A word on the Cmax: it is the maximum level reached in the sampled fluid or tissue.

The target in data set [1] is T1, Glucocorticoid receptor (Homo sapiens, UniProt P04150).
T1 sequence (P04150 whole entry): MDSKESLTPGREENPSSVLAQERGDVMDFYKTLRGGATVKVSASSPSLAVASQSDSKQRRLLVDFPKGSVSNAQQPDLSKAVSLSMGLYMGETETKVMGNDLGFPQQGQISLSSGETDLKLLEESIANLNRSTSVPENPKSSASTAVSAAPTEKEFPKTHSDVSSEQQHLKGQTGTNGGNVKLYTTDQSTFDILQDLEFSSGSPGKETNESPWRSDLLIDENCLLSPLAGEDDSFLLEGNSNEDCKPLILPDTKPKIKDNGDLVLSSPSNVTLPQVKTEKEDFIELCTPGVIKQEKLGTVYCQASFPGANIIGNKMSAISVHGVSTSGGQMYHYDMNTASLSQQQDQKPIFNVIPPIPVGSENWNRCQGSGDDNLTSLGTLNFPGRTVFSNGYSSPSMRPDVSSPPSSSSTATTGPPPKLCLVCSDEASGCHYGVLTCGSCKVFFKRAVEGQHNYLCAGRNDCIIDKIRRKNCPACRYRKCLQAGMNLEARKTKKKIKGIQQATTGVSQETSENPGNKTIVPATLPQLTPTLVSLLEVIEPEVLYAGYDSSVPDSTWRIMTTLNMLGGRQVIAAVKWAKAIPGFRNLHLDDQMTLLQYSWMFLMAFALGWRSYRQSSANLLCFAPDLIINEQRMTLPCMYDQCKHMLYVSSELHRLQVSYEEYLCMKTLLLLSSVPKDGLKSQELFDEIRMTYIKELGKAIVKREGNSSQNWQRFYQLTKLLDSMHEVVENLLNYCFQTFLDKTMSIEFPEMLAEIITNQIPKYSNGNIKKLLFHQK
As to the kind of experiment: Displacement of [3H]dexamethasone from human recombinant GR. (In general: Loss of bound radioactivity is the signal in a displacement assay; it reports binding, not function.)

Data set [2] has as its target T1, Glucocorticoid receptor. As to the kind of experiment: Antagonist activity at human GR. It is filed as functional.
Another data set addresses T2, Progesterone receptor (Homo sapiens, UniProt P06401).
T2 sequence (P06401 whole entry): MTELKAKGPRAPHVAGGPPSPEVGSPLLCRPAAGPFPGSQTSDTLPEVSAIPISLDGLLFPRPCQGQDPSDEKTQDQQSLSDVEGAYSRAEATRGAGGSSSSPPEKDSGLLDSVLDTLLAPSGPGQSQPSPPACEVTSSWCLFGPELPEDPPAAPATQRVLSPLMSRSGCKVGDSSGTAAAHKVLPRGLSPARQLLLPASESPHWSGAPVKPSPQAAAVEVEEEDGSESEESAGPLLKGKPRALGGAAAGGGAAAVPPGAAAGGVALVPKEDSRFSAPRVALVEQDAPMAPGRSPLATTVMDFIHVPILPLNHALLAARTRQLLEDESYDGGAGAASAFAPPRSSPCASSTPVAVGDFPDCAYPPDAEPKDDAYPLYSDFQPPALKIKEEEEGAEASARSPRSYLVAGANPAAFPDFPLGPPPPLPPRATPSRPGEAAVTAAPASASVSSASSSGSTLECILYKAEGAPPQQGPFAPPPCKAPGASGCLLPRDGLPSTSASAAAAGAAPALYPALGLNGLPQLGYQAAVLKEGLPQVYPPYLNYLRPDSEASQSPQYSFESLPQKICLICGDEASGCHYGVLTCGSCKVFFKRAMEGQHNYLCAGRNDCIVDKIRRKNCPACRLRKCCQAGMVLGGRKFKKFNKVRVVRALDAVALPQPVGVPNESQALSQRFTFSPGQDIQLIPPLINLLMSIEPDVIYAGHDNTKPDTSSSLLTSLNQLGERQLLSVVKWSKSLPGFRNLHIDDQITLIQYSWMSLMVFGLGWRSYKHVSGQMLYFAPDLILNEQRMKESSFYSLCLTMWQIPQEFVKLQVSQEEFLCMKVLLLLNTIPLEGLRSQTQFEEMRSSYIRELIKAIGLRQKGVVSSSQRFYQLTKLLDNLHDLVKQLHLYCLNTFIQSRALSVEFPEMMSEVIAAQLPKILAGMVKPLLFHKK
As to the kind of experiment: Displacement of [3H]progesterone from progesterone receptor.

The target in data set [3] is T3, Glucocorticoid receptor (Homo sapiens) (UniProt P04150).
T3 sequence (whole entry): T1 sequence (P04150 whole entry)
As to the kind of experiment: Displacement of [3H]dexamethasone from glucocorticoid receptor at 1 uM.

The target of data set [4] is T4, Mineralocorticoid receptor (Homo sapiens, UniProt P08235).
T4 sequence (P08235 whole entry): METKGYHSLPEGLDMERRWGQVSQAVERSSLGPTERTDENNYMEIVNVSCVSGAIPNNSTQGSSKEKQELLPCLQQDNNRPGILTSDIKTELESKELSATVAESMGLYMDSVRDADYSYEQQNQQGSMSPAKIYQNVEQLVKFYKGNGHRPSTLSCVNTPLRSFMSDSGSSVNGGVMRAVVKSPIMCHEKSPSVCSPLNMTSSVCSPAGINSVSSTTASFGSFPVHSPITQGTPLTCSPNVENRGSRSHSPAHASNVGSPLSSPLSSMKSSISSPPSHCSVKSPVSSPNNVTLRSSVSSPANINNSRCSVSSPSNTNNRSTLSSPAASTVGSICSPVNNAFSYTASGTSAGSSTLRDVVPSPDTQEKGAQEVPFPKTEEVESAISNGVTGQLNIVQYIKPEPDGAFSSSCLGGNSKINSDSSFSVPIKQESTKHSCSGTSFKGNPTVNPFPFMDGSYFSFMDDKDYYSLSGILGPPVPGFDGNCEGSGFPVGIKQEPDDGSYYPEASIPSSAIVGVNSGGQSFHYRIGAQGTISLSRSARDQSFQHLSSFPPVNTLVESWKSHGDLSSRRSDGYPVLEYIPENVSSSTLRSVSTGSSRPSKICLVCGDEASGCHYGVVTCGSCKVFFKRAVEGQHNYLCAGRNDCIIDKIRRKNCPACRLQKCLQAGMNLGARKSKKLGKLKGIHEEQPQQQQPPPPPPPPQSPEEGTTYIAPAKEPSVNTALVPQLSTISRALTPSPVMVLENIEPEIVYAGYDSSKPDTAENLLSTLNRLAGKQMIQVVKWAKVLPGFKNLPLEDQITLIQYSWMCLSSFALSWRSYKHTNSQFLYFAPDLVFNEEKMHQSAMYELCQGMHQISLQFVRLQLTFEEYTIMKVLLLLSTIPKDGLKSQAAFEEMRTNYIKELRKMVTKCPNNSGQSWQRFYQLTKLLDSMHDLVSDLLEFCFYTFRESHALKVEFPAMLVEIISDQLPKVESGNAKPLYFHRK
Put plainly: biochemical.
Description: Displacement of [3H]aldosterone from mineralocorticoid receptor expressed in Sf9 cells

A short description of data set [5]: AUC in rat at 5 mg/kg, po. The data set is classed as ADME, organism-based. Set-up: dose 5 mg/kg, route oral. The following applies: plasma.
For the next data set, the target named is CYP3A4 (Homo sapiens, UniProt P08684). Put plainly: Inhibition of CYP3A4 at 1 uM. The data set is classed as ADME.
Data set [6] can be described thus: Cmax in rat at 5 mg/kg, po. The data set is classed as ADME, organism-based. The note with it: in vivo. Set-up: dose 5 mg/kg, route oral.
The test system of the next data set is Brain. Put plainly: Drug level in rat brain at 1 mg/kg, iv. The data set is classed as ADME, organism-based. Set-up: dose 1 mg/kg, route intravenous. The note with it: in vivo.
Another data set relates to Plasma. As to the kind of experiment: Drug lavel in rat plasma at 1 mg/kg, iv. The data set is classed as ADME, organism-based. Also noted: dose 1 mg/kg, route intravenous. The note with it: in vivo.
A short description of data set [7]: Metabolic stability in human […] S9 fraction after 30 mins. The data set is classed as ADME. The note with it: read-out: Stability.

Chain of CYP3A4 (P08684 whole entry): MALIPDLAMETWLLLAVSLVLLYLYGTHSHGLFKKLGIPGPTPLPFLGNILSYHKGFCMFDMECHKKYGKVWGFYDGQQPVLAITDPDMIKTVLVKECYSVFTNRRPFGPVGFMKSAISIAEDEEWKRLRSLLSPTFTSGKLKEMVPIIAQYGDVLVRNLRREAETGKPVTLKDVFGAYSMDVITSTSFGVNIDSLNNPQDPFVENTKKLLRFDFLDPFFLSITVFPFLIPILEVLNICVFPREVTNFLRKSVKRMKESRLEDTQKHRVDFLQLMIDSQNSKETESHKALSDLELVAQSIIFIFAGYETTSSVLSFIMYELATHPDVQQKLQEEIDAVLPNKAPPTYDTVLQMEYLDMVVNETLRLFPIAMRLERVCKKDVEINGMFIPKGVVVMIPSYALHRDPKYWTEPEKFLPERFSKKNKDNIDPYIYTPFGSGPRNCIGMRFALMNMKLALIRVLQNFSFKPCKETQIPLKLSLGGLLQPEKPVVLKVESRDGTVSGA

Turning to `O=c1[nH]c(N2CCC(c3ccccc3)CC2)c(Cc2cccc(Br)c2)c(=O)[nH]1`, the results for the inhibition constant Ki at Glucocorticoid receptor [1] and at Glucocorticoid receptor [2] were 0.014 µM and 0.065 µM, respectively.
Taken in the same sequence, the figures for `Cn1c(=O)[nH]c(N2CCC(c3ccccc3)CC2)c(Cc2ccccc2)c1=O` were 0.02 µM and 0.19 µM.
Consider `O=c1[nH]c(N2CCC(c3ccccc3)CC2)c(Cc2cccc(Cl)c2)c(=O)[nH]1`, for which the Ki at Glucocorticoid receptor [1] came out at 0.0091 µM; at Glucocorticoid receptor [2], 0.096 µM; on Progesterone receptor, 7.05 µM.
As for `N#Cc1ccc(Cc2c(N3CCC(c4ccccc4)CC3)[nH]c(=O)[nH]c2=O)cc1`, the inhibition in [3] was found to be 37%.
As to `CC1CCN(c2[nH]c(=O)n(C)c(=O)c2Cc2ccccc2)CC1`, in [3], the inhibition came to 2%.
`O=c1[nH]c(N2CCC(c3cccc(Cl)c3)CC2)c(Cc2ccccc2)c(=O)[nH]1` returned a Ki in [4] of 0.527 µM.
For `O=c1[nH]c(N2CCC(c3ccccc3)CC2)c(Cc2ccc(Cl)cc2)c(=O)[nH]1`, the results for the Ki on Glucocorticoid receptor [1] and at Glucocorticoid receptor [2] were 0.031 µM and 0.26 µM, respectively.
Take `Cn1c(=O)[nH]c(N2CCC(Oc3ccccc3)CC2)c(Cc2ccccc2)c1=O`: the Ki on Glucocorticoid receptor [1] worked out at 0.078 µM.
Regarding `Cn1c(=O)[nH]c(N2CCC(Cc3ccccc3)CC2)c(Cc2ccccc2Br)c1=O`, the Ki on Glucocorticoid receptor [1] is 0.033 µM; on Glucocorticoid receptor [2], 0.3 µM.
In the case of `Cn1c(=O)[nH]c(N2CCC(O)CC2)c(Cc2cccc(C(F)(F)F)c2)c1=O`, the Ki on Glucocorticoid receptor [1] was determined as 4.5 µM.
As to `COc1ccccc1C1CCN(c2[nH]c(=O)[nH]c(=O)c2Cc2ccccc2)CC1`, the Ki at Glucocorticoid receptor [1] is 0.0071 µM; in [4], 0.298 µM.
For the compound `CC(=O)Nc1cccc(C2CCN(c3[nH]c(=O)[nH]c(=O)c3Cc3ccccc3)CC2)c1`, the inhibition in data set [3] is 11%.
As to `COc1cccc(C2CCN(c3[nH]c(=O)[nH]c(=O)c3Cc3ccccc3)CC2)c1`, the Ki on Glucocorticoid receptor [1] amounted to 0.0092 µM; at Glucocorticoid receptor [2], 0.158 µM; in [4], 1.27 µM.
With `O=c1[nH]c(N2CCC(Cc3ccccc3)CC2)c(Cc2ccccc2)c(=O)[nH]1`, the Ki at Glucocorticoid receptor [1] was determined as 0.019 µM; at Glucocorticoid receptor [2], 0.15 µM.
Regarding `Cn1c(N2CCC(Cc3ccccc3)CC2)c(Cc2ccccc2)c(=O)[nH]c1=O`, the inhibition in data set [3] was determined as 11%.
`COc1ccc(C2CCN(c3[nH]c(=O)[nH]c(=O)c3Cc3ccccc3)CC2)cc1`: the Ki at Glucocorticoid receptor [1] was determined as 0.045 µM.
For the compound `O=c1[nH]c(N2CCC(c3ccccc3)CC2)c(Cc2ccccc2)c(=O)[nH]1`, in [5], the AUC was 0.6 µg·h/mL. In addition, the Ki is 0.0081 µM on Glucocorticoid receptor [1], 0.093 µM on Glucocorticoid receptor [2] and 0.93 µM in data set [4]. This compound yielded an inhibition at 1 µM against CYP3A4 of 25%. In data set [6], this compound registered a Cmax of 0.143 µg/mL. In addition, in the data set on Brain, the Drug uptake is given as 45 ng/g. This compound also returned a Cp in the data set with Plasma of 0.178 µg/mL. In data set [7], the remaining at 0.5 h is 94%.
For the compound `Cn1c(=O)[nH]c(N2CCC(CCCc3ccccc3)CC2)c(Cc2ccccc2)c1=O`, the inhibition in data set [3] worked out at 18%.
On to `Cn1c(=O)[nH]c(N2CCC(Cc3ccccc3)CC2)c(Cc2ccccc2)c1=O`, for which the values for the Ki on Glucocorticoid receptor [1] and at Glucocorticoid receptor [2] were 0.024 µM and 0.1 µM, respectively.
On to `N#Cc1cccc(Cc2c(N3CCC(c4ccccc4)CC3)[nH]c(=O)[nH]c2=O)c1`, for which the Ki at Glucocorticoid receptor [1] was 0.037 µM.
For `Cn1c(=O)[nH]c(N2CCc3ccccc3C2)c(Cc2ccccc2)c1=O`, the inhibition in data set [3] amounted to 23%.
Compound `COc1cccc(Cc2c(N3CCC(c4ccccc4)CC3)[nH]c(=O)[nH]c2=O)c1` returned an inhibition in data set [3] of 31%.
On to `Cn1c(=O)[nH]c(N2CCC(O)(Cc3ccccc3)CC2)c(Cc2ccccc2)c1=O`, for which the Ki on Glucocorticoid receptor [1] was 0.36 µM.
For `CC(=O)Nc1ccc(C2CCN(c3[nH]c(=O)[nH]c(=O)c3Cc3ccccc3)CC2)cc1`, the Ki on Glucocorticoid receptor [1] amounted to 0.046 µM.
On to `O=c1[nH]c(N2CCC(c3ccccc3)CC2)c(Cc2ccccc2Cl)c(=O)[nH]1`, for which the Ki on Glucocorticoid receptor [1] was found to be 0.0087 µM; at Glucocorticoid receptor [2], 0.05 µM; in [4] it was 3.49 µM.
